Laboratory results published in the supplement of paper PMC11208160.

assay: recombinant UMI read abundance after kanamycin selection (control-corrected) (log10(CPM+1)); higher = more efficient recombination; extreme values may be limits of the assay; sequences stand for … in AGTGCAGAGAAAATCGGCCAGTTTTCTCTGCCTGCAGTCCGCATGCCGTGGGACCCCTTGGGTTCTAACCTGTTGCCTAGATTTATGCAGCGGACTGCCTTTCTCCCAAAGTGATAAACCGG…AGGTTGGTTTCACT; site = the 11-nt donor
Outline: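 The measure is log10(CPM+1) for recombinant UMIs. These were PCR-amplified across the donor–target junction and sequenced after Escherichia coli carrying a donor and donor-binding-loop pair library and a target plasmid with T7-inducible IS621 bridge recombinase was plated on IPTG (0.07 mM) plus kanamycin or unselected. CPM were averaged over two replicates and scaled by control-derived factors.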
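Further: IS621 bridge recombinase in Escherichia coli cells against a fixed T5 target plasmid.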

Compared with “AGCTCAGCATGGACCGGTTTTCCCGGTAATCCGTATTTGAG (site AGCTCAGCTCG)”, “AGCTCAGCATGGACCGGTTTTCCCGGTAATCCGTATTTGAG (site AGCTCAGCTCT)” is higher in “recombinant UMI read abundance (log10)” value: 0 for the first, 1.33 for the second.

Compared with “AGCTCAGCATGGACCGGTTTTCCCGGTAATCCGTATTTGGA (site AGCTCAGCTAC)”, “AGCTCAGCATGGACCGGTTTTCCCGGTAATCCGTATTTGGA (site AGCTCAGCTCC)” is higher in “recombinant UMI read abundance (log10)” value: 0.00904 for the first, 0.264 for the second.

Compared with “AGCTCAGCATGGACCGGTTTTCCCGGTAATCCGTATTTGGA (site AGCTCAGCTGC)”, “AGCTCAGCATGGACCGGTTTTCCCGGTAATCCGTATTTGGA (site AGCTCAGCTTC)” is higher in “recombinant UMI read abundance (log10)” value: 0 for the first, 1.03 for the second.

First: AGCTCAGCATGGACCGGTTTTCCCGGTAATCCGTATTTGTG (site AGCTCAGCTCA)
Second: AGCTCAGCATGGACCGGTTTTCCCGGTAATCCGTATTTGTG (site AGCTCAGCTCC)
The “recombinant UMI read abundance (log10)” value of the first is higher: 0.506 for the first, 0.00732 for the second.

First: AGCTCAGCATGGACCGGTTTTCCCGGTAATCCGTATTTGTG (site AGCTCAGCTCG)
Second: AGCTCAGCATGGACCGGTTTTCCCGGTAATCCGTATTTGTG (site AGCTCAGCTCT)
The “recombinant UMI read abundance (log10)” value of the first is lower: 0 for the first, 0.362 for the second.

First: AGCTCGACATGGACCGGTTTTCCCGGTAATCCGTATTTGGC (site AGCTCGACTGC)
Second: AGCTCTGCATGGACCGGTTTTCCCGGTAATCCGTATTTGGG (site AGCTCAGCTCC)
The “recombinant UMI read abundance (log10)” value of the first is higher: 1.31 for the first, 0.0199 for the second.

“AGCTCTGCATGGACCGGTTTTCCCGGTAATCCGTATTTGGG (site AGCTCCGCTCC)” and “AGCTCTGCATGGACCGGTTTTCCCGGTAATCCGTATTTGGG (site AGCTCGGCTCC)” are within 0.2 log units of each other in “recombinant UMI read abundance (log10)” value: 0.0101 for the first, 0 for the second.

First: AGCTCTGCATGGACCGGTTTTCCCGGTAATCCGTATTTGGG (site AGCTCTGCTCC)
Second: AGCTTAGCATGGACCGGTTTTCCCGGTAATCCGTATTTGTT (site AGCATAGCTAA)
The “recombinant UMI read abundance (log10)” value of the first is higher: 0.25 for the first, 0.00999 for the second.

Going from “AGCTTAGCATGGACCGGTTTTCCCGGTAATCCGTATTTGTT (site AGCCTAGCTAA)” to “AGCTTAGCATGGACCGGTTTTCCCGGTAATCCGTATTTGTT (site AGCGTAGCTAA)”, the “recombinant UMI read abundance (log10)” value falls from 0.261 to 0.0147.

“AGCTTAGCATGGACCGGTTTTCCCGGTAATCCGTATTTGTT (site AGCTTAGCTAA)” and “AGCTTCCCATGGACCGGTTTTCCCGGTAATCCGTATTTGGG (site AGCTTCCCTCC)” are within 0.2 log units of each other in “recombinant UMI read abundance (log10)” value: 0.0106 for the first, 0.0229 for the second.

Going from “AGCTTGCCATGGACCGGTTTTCCCGGTAATCCGTATTTGAT (site AGCTTGCCTAT)” to “AGGAAGACATGGACCGGTTTTCCCGGTAATCCGTATTTGAC (site AGGAAGACTGT)”, the “recombinant UMI read abundance (log10)” value rises from 0.0115 to 2.64.

“AGGAAGACATGGACCGGTTTTCCCGGTAATCCGTATTTGAC (site AGGAAGACTTG)” and “AGGAAGACATGGACCGGTTTTCCCGGTAATCCGTATTTGCC (site AGGAAGACTAG)” are within 0.2 log units of each other in “recombinant UMI read abundance (log10)” value: 0.571 for the first, 0.42 for the second.

Going from “AGGAAGACATGGACCGGTTTTCCCGGTAATCCGTATTTGCC (site AGGAAGACTCG)” to “AGGAAGACATGGACCGGTTTTCCCGGTAATCCGTATTTGCC (site AGGAAGACTGG)”, the “recombinant UMI read abundance (log10)” value rises from 0.723 to 1.84.

Compared with “AGGAAGACATGGACCGGTTTTCCCGGTAATCCGTATTTGCC (site AGGAAGACTTG)”, “AGGAAGACATGGACCGGTTTTCCCGGTAATCCGTATTTGGT (site AGGAAGACTAC)” is higher in “recombinant UMI read abundance (log10)” value: 1.8 for the first, 2.1 for the second.

“AGGAAGACATGGACCGGTTTTCCCGGTAATCCGTATTTGGT (site AGGAAGACTTG)” and “AGGAAGCCATGGACCGGTTTTCCCGGTAATCCGTATTTGCC (site AGGAAGACTTG)” are the same in “recombinant UMI read abundance (log10)” value: 0 for the first, 0 for the second.

Going from “AGGAAGCCATGGACCGGTTTTCCCGGTAATCCGTATTTGCC (site AGGAAGCCTGG)” to “AGGAATACATGGACCGGTTTTCCCGGTAATCCGTATTTGCA (site AGGAAAACTTG)”, the “recombinant UMI read abundance (log10)” value rises from 0 to 0.656.

First: AGGAATACATGGACCGGTTTTCCCGGTAATCCGTATTTGCA (site AGGAACACTTG)
Second: AGGAATACATGGACCGGTTTTCCCGGTAATCCGTATTTGCA (site AGGAAGACTTG)
The “recombinant UMI read abundance (log10)” value of the first is higher: 1.48 for the first, 0.151 for the second.

Going from “AGGAATACATGGACCGGTTTTCCCGGTAATCCGTATTTGCA (site AGGAATACTTG)” to “AGGAATACATGGACCGGTTTTCCCGGTAATCCGTATTTGGA (site AGGAAGACTTG)”, the “recombinant UMI read abundance (log10)” value falls from 2.11 to 0.341.

Compared with “AGGAATACATGGACCGGTTTTCCCGGTAATCCGTATTTGGA (site AGGAATACTTC)”, “AGGAATACATGGACCGGTTTTCCCGGTAATCCGTATTTGGG (site AGGAATACTCC)” is lower in “recombinant UMI read abundance (log10)” value: 1.69 for the first, 0.394 for the second.

Compared with “AGGACAACATGGACCGGTTTTCCCGGTAATCCGTATTTGAC (site AGGACAACTGT)”, “AGGACAACATGGACCGGTTTTCCCGGTAATCCGTATTTGAC (site AGGACCACTGT)” is lower in “recombinant UMI read abundance (log10)” value: 2.26 for the first, 0 for the second.

“AGGACAACATGGACCGGTTTTCCCGGTAATCCGTATTTGAC (site AGGACGACTGT)” and “AGGACAACATGGACCGGTTTTCCCGGTAATCCGTATTTGAC (site AGGACTACTGT)” are the same in “recombinant UMI read abundance (log10)” value: 0 for the first, 0 for the second.

Compared with “AGGACGACATGGACCGGTTTTCCCGGTAATCCGTATTTGAC (site AGGACAACTGT)”, “AGGACGACATGGACCGGTTTTCCCGGTAATCCGTATTTGAC (site AGGACCACTGT)” is lower in “recombinant UMI read abundance (log10)” value: 2.09 for the first, 0.378 for the second.

Compared with “AGGACGACATGGACCGGTTTTCCCGGTAATCCGTATTTGAC (site AGGACGACTGT)”, “AGGACGACATGGACCGGTTTTCCCGGTAATCCGTATTTGAC (site AGGACTACTGT)” is lower in “recombinant UMI read abundance (log10)” value: 3.14 for the first, 0 for the second.

Compared with “AGGACGACATGGACCGGTTTTCCCGGTAATCCGTATTTGCT (site AGGAAGACTTG)”, “AGGACGACATGGACCGGTTTTCCCGGTAATCCGTATTTGCT (site AGGACGACTAG)” is higher in “recombinant UMI read abundance (log10)” value: 0 for the first, 2.52 for the second.

Going from “AGGACTACATGGACCGGTTTTCCCGGTAATCCGTATTTGAA (site AGGACTACTAT)” to “AGGACTACATGGACCGGTTTTCCCGGTAATCCGTATTTGAA (site AGGACTACTCT)”, the “recombinant UMI read abundance (log10)” value falls from 1.41 to 0.127.

Compared with “AGGACTACATGGACCGGTTTTCCCGGTAATCCGTATTTGAA (site AGGACTACTGT)”, “AGGACTACATGGACCGGTTTTCCCGGTAATCCGTATTTGAA (site AGGACTACTTT)” is higher in “recombinant UMI read abundance (log10)” value: 0.477 for the first, 1.13 for the second.

“AGGACTACATGGACCGGTTTTCCCGGTAATCCGTATTTGCC (site AGGACTACTGA)” and “AGGACTACATGGACCGGTTTTCCCGGTAATCCGTATTTGCC (site AGGACTACTGC)” are the same in “recombinant UMI read abundance (log10)” value: 0 for the first, 0 for the second.

Going from “AGGACTACATGGACCGGTTTTCCCGGTAATCCGTATTTGCC (site AGGACTACTGG)” to “AGGACTACATGGACCGGTTTTCCCGGTAATCCGTATTTGCC (site AGGACTACTGT)”, the “recombinant UMI read abundance (log10)” value falls from 2.23 to 0.

Compared with “AGGACTGCATGGACCGGTTTTCCCGGTAATCCGTATTTGAG (site AGGACTGCTCT)”, “AGGAGGACATGGACCGGTTTTCCCGGTAATCCGTATTTGCA (site AGGAAGACTTG)” is higher in “recombinant UMI read abundance (log10)” value: 1.79 for the first, 2.35 for the second.

Going from “AGGAGGACATGGACCGGTTTTCCCGGTAATCCGTATTTGCA (site AGGACGACTTG)” to “AGGAGGACATGGACCGGTTTTCCCGGTAATCCGTATTTGCA (site AGGAGGACTTG)”, the “recombinant UMI read abundance (log10)” value rises from 0.4 to 2.56.

Going from “AGGAGGACATGGACCGGTTTTCCCGGTAATCCGTATTTGCA (site AGGATGACTTG)” to “AGGAGTACATGGACCGGTTTTCCCGGTAATCCGTATTTGAC (site AGGAATACTGT)”, the “recombinant UMI read abundance (log10)” value rises from 0 to 1.29.

Going from “AGGAGTACATGGACCGGTTTTCCCGGTAATCCGTATTTGAC (site AGGACTACTGT)” to “AGGAGTACATGGACCGGTTTTCCCGGTAATCCGTATTTGAC (site AGGAGTACTGT)”, the “recombinant UMI read abundance (log10)” value rises from 0.225 to 2.08.

First: AGGAGTACATGGACCGGTTTTCCCGGTAATCCGTATTTGAC (site AGGATTACTGT)
Second: AGGAGTACATGGACCGGTTTTCCCGGTAATCCGTATTTGTC (site AGGAGTACTGA)
The “recombinant UMI read abundance (log10)” value of the first is lower: 0.00638 for the first, 2.17 for the second.

Going from “AGGAGTCCATGGACCGGTTTTCCCGGTAATCCGTATTTGAA (site AGGAGTCCTTT)” to “AGGATAACATGGACCGGTTTTCCCGGTAATCCGTATTTGGC (site AGGATAACTGC)”, the “recombinant UMI read abundance (log10)” value rises from 1.07 to 2.73.

Compared with “AGGATGACATGGACCGGTTTTCCCGGTAATCCGTATTTGTA (site AGGAAGACTTG)”, “AGGATGACATGGACCGGTTTTCCCGGTAATCCGTATTTGTA (site AGGATGACTTA)” is higher in “recombinant UMI read abundance (log10)” value: 0 for the first, 2.6 for the second.

Going from “AGGATGGCATGGACCGGTTTTCCCGGTAATCCGTATTTGGT (site AGGATGGCTAC)” to “AGGATTCCATGGACCGGTTTTCCCGGTAATCCGTATTTGTT (site AGGATTCCTAA)”, the “recombinant UMI read abundance (log10)” value falls from 1.79 to 0.226.

“AGGATTCCATGGACCGGTTTTCCCGGTAATCCGTATTTGTT (site CGGAATCCTAA)” and “AGGCAACCATGGACCGGTTTTCCCGGTAATCCGTATTTGGG (site AGGCAACCTCC)” are within 0.2 log units of each other in “recombinant UMI read abundance (log10)” value: 0.0087 for the first, 0.112 for the second.

With “AGGCCGACATGGACCGGTTTTCCCGGTAATCCGTATTTGCA (site AGGAAGACTTG)” the “recombinant UMI read abundance (log10)” value was 0.
